{
  "source": "patent US20100137239A1",
  "about": "“GEMCITABINE COMBINATION THERAPY” (GLOUCESTER PHARMACEUTICALS, priority 2006, published 2010)",
  "key": {"[1]": {"test_system": "BxPC-3 Human Pancreatic Tumor Xenograft", "assay": "BxPC-3 xenograft tumor growth inhibition study (Example 3)", "format": "in vivo, mouse xenograft", "conditions": "for % TGI: BxPC-3, Day 29; for activity according to NCI Standards / #PR/CR / FINAL TUMOR VOLUME (DAY 29) MEAN ± SEM / calculated TGI values (discussion): BxPC-3; for calculated TGI values (discussion): all evaluated doses and schedules", "source_text": "(§1) (Madison, Wis.). […] Tumor measurements were converted to cubic millimeter tumor volume using the formula^(5): […] Final mean tumor volume ±SEM for each group was reported; animals experiencing partial or complete tumor regressions or animals experiencing technical or drug-related deaths were censored from these calculations. […] TGI values for each treatment group are reported at study completion; these calculations are based on the final study day. […] If partial tumor regression was reported in multiple animals within one group, a mean value was determined. Individual mice lacking palpable tumors were classified as undergoing complete regression (CR). Animals experiencing partial or complete tumor regressions were censored from TGI calculations. However, data from these animals was included in statistical analysis calculations. In addition, weight data from these animals was included in daily and final group calculations. Tumor Necrosis-Degree of tumor necrosis was rated at each tumor measurement using the following arbitrary index: [table]"}, "[2]": {"test_system": "PANC-1 Human Pancreatic Tumor Xenograft", "assay": "PANC-1 xenograft tumor growth inhibition study (Example 3)", "format": "in vivo, mouse xenograft", "conditions": "for % TGI: PANC-1, Day 25; for activity according to NCI Standards / #PR/CR / FINAL TUMOR VOLUME (DAY 25) MEAN ± SEM / calculated TGI values (discussion) / % TR: PANC-1; for calculated TGI values (discussion): all evaluated doses and schedules", "source_text": "as §1"}, "acetylated histone 3": {"test_system": "acetylated histone 3", "assay": "Immunoblot of acetylated histone 3 in PANC-1 xenograft tumors", "format": "in vivo, human", "conditions": "FK228 5 mg/kg Q4Dx3; gemcitabine 80 mg/kg Q3Dx4; tumors at study completion; vs controls", "procedure": "(§2) Abstract: To examine activity and mechanism of FK228, antitumor efficacy was tested in PANC-1 pancreatic adenocarcinoma model representing transformed Ras, either as a single agent or in combination with gemcitabine. Following PANC-1 study completion, tumor and sera were obtained from: • the vehicle control; • FK228 dosed at 5 mg/kg once every four days for three treatments (Q4Dx3); • Gemcitabine at 80 mg/kg (Q3Dx4); and • the drug combination. Expression of c-Myc, acetylated histones 3 and 4, and p21^waf1 was compared between control and FK228 groups by immunoblotting and was quantified following actin normalization. Serum levels of putative tumor products b-FGF and MMP-2 were quantified by human-specific ELISA. […]\n(§3) Tissue Biomarkers: Tumor levels of acetylated histone-4, histone-4, c-Myc, p21waf and β-actin were quantified by immunoblotting as described. […] The chemiluminescence signal was captured by autoradiography, quantified by densitometry and expressed as a ratio of actin in each sample lane. For each biomarker, means and standard errors were calculated in each treatment group. […]\n(§4) Expression of c-Myc, acetylated histones 3 and 4, and p21^waf1 was compared between control and FK228 groups by immunoblotting and was quantified following actin normalization. Serum levels of putative tumor products b-FGF and MMP-2 were quantified by human-specific ELISA. […]"}, "acetylated histone 4": {"test_system": "acetylated histone 4", "assay": "Immunoblot of acetylated histone 4 in PANC-1 xenograft tumors", "format": "in vivo, human", "conditions": "FK228 5 mg/kg Q4Dx3; gemcitabine 80 mg/kg Q3Dx4; tumors at study completion; vs controls", "procedure": "as §2, §3, §4"}, "[3]": {"conditions": "FK228 2.5 mg/kg IV Q4Dx3, 2.5 mg/kg"}, "[4]": {"conditions": "FK228 5 mg/kg IV Q4Dx3, 5 mg/kg"}},
  "note": "“And” between values parts separate entries of the source, which are not always exact repeats. Identical values can stand only once.",
  "data": [
    {"smiles": "C/C=C1\\NC(=O)[C@H]2CSSCC/C=C/[C@H](CC(=O)N[C@H](C(C)C)C(=O)N2)OC(=O)[C@H](C(C)C)NC1=O", "note": "[FK228, romidepsin]", "values": [
      {"measurement": "% TGI", "setting": "[1]; FK228 2.5 mg/kg IV Q4Dx3", "value": "No TGI"},
      {"measurement": "% TGI", "setting": "[1]; FK228 5 mg/kg IV Q4Dx3", "value": "No TGI"},
      {"measurement": "activity according to NCI Standards", "setting": "[1]; FK228 2.5 mg/kg IV Q4Dx3", "value": "inactive"},
      {"measurement": "#PR/CR", "setting": "[1]; [3]", "value": "0/9 and 0/0"},
      {"measurement": "FINAL TUMOR VOLUME (DAY 29) MEAN ± SEM", "setting": "[1]; [3]", "value": "2440±643", "unit": "mm^3"},
      {"measurement": "activity according to NCI Standards", "setting": "[1]; FK228 5 mg/kg IV Q4Dx3", "value": "inactive"},
      {"measurement": "#PR/CR", "setting": "[1]; [4]", "value": "0/9 and 0/0"},
      {"measurement": "FINAL TUMOR VOLUME (DAY 29) MEAN ± SEM", "setting": "[1]; [4]", "value": "2620±238", "unit": "mm^3"},
      {"measurement": "calculated TGI values (discussion)", "setting": "[1]", "value": "No tumor growth inhibition"},
      {"measurement": "single agent activity towards tumor model", "setting": "[1]; wildtype ras BxPC-3", "value": "inactive"},
      {"measurement": "% TGI", "setting": "[2]; FK228 2.5 mg/kg IV Q4Dx3", "value": 26, "unit": "%"},
      {"measurement": "% TGI", "setting": "[2]; FK228 5 mg/kg IV Q4Dx3", "value": 26, "unit": "%"},
      {"measurement": "activity according to NCI Standards", "setting": "[2]; FK228 2.5 mg/kg IV Q4Dx3", "value": "inactive"},
      {"measurement": "#PR/CR", "setting": "[2]; [3]", "value": "0/9 and 0/0"},
      {"measurement": "FINAL TUMOR VOLUME (DAY 25) MEAN ± SEM", "setting": "[2]; [3]", "value": "1688±290", "unit": "mm^3"},
      {"measurement": "activity according to NCI Standards", "setting": "[2]; FK228 5 mg/kg IV Q4Dx3", "value": "inactive"},
      {"measurement": "#PR/CR", "setting": "[2]; [4]", "value": "0/9 and 0/0"},
      {"measurement": "FINAL TUMOR VOLUME (DAY 25) MEAN ± SEM", "setting": "[2]; [4]", "value": "1690±290 mm^3 and 1690 ± 331 mm^3"},
      {"measurement": "calculated TGI values (discussion)", "setting": "[2]", "value": "less than 58%"},
      {"measurement": "single agent activity towards tumor model", "setting": "[2]; ras-transformed PANC-1", "value": "some activity"},
      {"measurement": "acetylation of histone 3", "setting": "acetylated histone 3", "value": "not affected"},
      {"measurement": "increase of acetylated histone 4", "setting": "acetylated histone 4", "value": "over 2 fold"}
    ]},
    {"smiles": "Nc1ccn([C@@H]2O[C@H](CO)[C@@H](O)C2(F)F)c(=O)n1", "note": "[Gemcitabine, gemcitabine]", "values": [
      {"measurement": "% TGI", "setting": "[1]; Gemcitabine 40 mg/kg IP Q3Dx4", "value": 20, "unit": "%"},
      {"measurement": "% TGI", "setting": "[1]; Gemcitabine 80 mg/kg IP Q3Dx4", "value": 9, "unit": "%"},
      {"measurement": "#PR/CR", "setting": "[1]; Gemcitabine 40 mg/kg IP Q3Dx4", "value": "0/9 and 0/0"},
      {"measurement": "FINAL TUMOR VOLUME (DAY 29) MEAN ± SEM", "setting": "[1]; Gemcitabine 40 mg/kg IP Q3Dx4", "value": "1683±426", "unit": "mm^3"},
      {"measurement": "activity according to NCI Standards", "setting": "[1]; Gemcitabine 40 mg/kg IP Q3Dx4", "value": "inactive"},
      {"measurement": "#PR/CR", "setting": "[1]; Gemcitabine 80 mg/kg IP Q3Dx4", "value": "0/9 and 0/0"},
      {"measurement": "FINAL TUMOR VOLUME (DAY 29) MEAN ± SEM", "setting": "[1]; Gemcitabine 80 mg/kg IP Q3Dx4", "value": "1890±237", "unit": "mm^3"},
      {"measurement": "activity according to NCI Standards", "setting": "[1]; Gemcitabine 80 mg/kg IP Q3Dx4", "value": "inactive"},
      {"measurement": "calculated TGI values (discussion)", "setting": "[1]", "value": "less than 58%"},
      {"measurement": "% TGI", "setting": "[2]; Gemcitabine 40 mg/kg IP Q3Dx4", "value": 31, "unit": "%"},
      {"measurement": "% TGI", "setting": "[2]; Gemcitabine 80 mg/kg IP Q3Dx4", "value": 51, "unit": "%"},
      {"measurement": "#PR/CR", "setting": "[2]; Gemcitabine 40 mg/kg IP Q3Dx4", "value": "1/9 and 1/0"},
      {"measurement": "% TR", "setting": "[2]; Gemcitabine 40 mg/kg IP Q3Dx4", "value": 62, "unit": "%"},
      {"measurement": "FINAL TUMOR VOLUME (DAY 25) MEAN ± SEM", "setting": "[2]; Gemcitabine 40 mg/kg IP Q3Dx4", "value": "1566±255", "unit": "mm^3"},
      {"measurement": "activity according to NCI Standards", "setting": "[2]; Gemcitabine 40 mg/kg IP Q3Dx4", "value": "inactive"},
      {"measurement": "% TR", "setting": "[2]; Gemcitabine 40 mg/kg IP Q3Dx4, listed as gemcitabine", "value": 62, "unit": "%"},
      {"measurement": "#PR/CR", "setting": "[2]; Gemcitabine 80 mg/kg IP Q3Dx4", "value": "0/9 and 0/0"},
      {"measurement": "FINAL TUMOR VOLUME (DAY 25) MEAN ± SEM", "setting": "[2]; Gemcitabine 80 mg/kg IP Q3Dx4", "value": "1172±234", "unit": "mm^3"},
      {"measurement": "activity according to NCI Standards", "setting": "[2]; Gemcitabine 80 mg/kg IP Q3Dx4", "value": "inactive"},
      {"measurement": "calculated TGI values (discussion)", "setting": "[2]", "value": "less than 58%"},
      {"measurement": "acetylation of histone 3", "setting": "acetylated histone 3", "value": "significantly inhibited"},
      {"measurement": "increase of acetylated histone 4", "setting": "acetylated histone 4", "value": "on the control level"}
    ]}
  ]
}
